{"source": "patent US11549147B2", "about": "“Treatment of atopic dermatitis with tradipitant” (VANDA PHARMACEUTICALS INC., priority 2017, dated 2023)", "test_system": "chronic pruritus associated with atopic dermatitis", "assay": "Phase II randomized double-blind placebo-controlled study NCT02651714 (Example 3)", "assay_type": "in vivo, human", "parameters": "key to average itch VAS, difference / worst itch VAS, difference: VAS in mm, 0-100 mm scale; key to Average Itch VAS / worst Itch VAS: change in VAS, mm on 0-100 mm scale; CGI-C / SKINDEX-16 / Worst Itch NRS Night / worst itch NRS night, difference / CGIC, difference: scale not given here", "method": "A phase II, multicenter, randomized, double-blind, placebo-controlled clinical study (“Tradipitant in Treatment-resistant Pruritus Associated with Atopic Dermatitis,” clinicaltrials.gov Study ID NCT02651714) is conducted to determine the efficacy of tradipitant relative to placebo in reducing chronic pruritus as measured by the VAS.\nInclusion criteria for the study include chronic (≥6 weeks) itch related to AD that is refractory to treatment by patient history, average itch score by VAS of ≥70 mm (out of 100 mm), verbal response score (VRS) of ≥3 on at least one of the past three days prior to randomization, and a SCORAD of <80.\nPatients are randomized to receive either 85 mg of tradipitant or placebo (1:1) bid. The design for the randomized, placebo-controlled, double-blind study is depicted in FIG. 3. Individuals with chronic pruritus associated with AD are administered 85 mg of tradipitant bid or placebo for eight weeks. Average itch severity and worst itch severity are assessed by VAS, and VRS is assessed every two weeks. In addition, treatment is assessed biweekly using both the objective and subjective SCORing Atopic Dermatitis (SCORAD) Index (Severity Scoring of Atopic Dermatitis: The SCORAD Index, Consensus Report of the European Task Force on Atopic Dermatitis, Dermatology 1993; 186:23-31) and the Eczema Area and Severity Index (EASI) (Hanifin et al., The eczema area and severity index (EASI): assessment of reliability in atopic dermatitis, Experimental Dermatology 10(1):11-18 (2001)). The Clinical Global Impressions of Change (CGI-C) scale, the Patient Global Impression of Change (PGIC) scale with respect to both itch and AD, the Patient Benefit Index (PBI), and SKINDEX-16 scales are also used for assessments. Twice daily questionnaires are completed to report worst and average itch by numeric rating scale (NRS).\nThe objective SCORAD assessment includes parameters including extension, intensity, excoriations, erythema, oozing or crusting, the presence of edema or papules, lichenification, and skin dryness. The subjective SCORAD assessment includes patient assessments of itch and insomnia.", "key": {"[1]": {"details": "ITT population, 85 mg bid, week 8"}, "[2]": {"details": "categorical, ITT, 85 mg bid, week 8"}, "[3]": {"details": "difference tradipitant vs placebo, 85 mg bid, week 8"}}, "note": "Values joined by “and” are separate entries in the source; they are usually repeats but may differ in a detail not shown here. Equal entries are not always repeated.", "data": [{"smiles": "O=C(c1ccccc1Cl)c1cccnc1-c1nnn(Cc2cc(C(F)(F)F)cc(C(F)(F)F)c2)c1-c1ccncc1", "note": "[Tradipitant]", "values": [{"measurement": "time at which treatment effects in both itch and disease severity are evident", "setting": "85 mg bid", "value": 2, "unit": "Week"}, {"measurement": "clinical features of severity of atopic dermatitis, including excoriation, erythema, oozing and dryness", "setting": "85 mg bid vs placebo", "value": "significant improvements"}, {"measurement": "Average Itch VAS", "setting": "[1]", "value": "−41.5"}, {"measurement": "CGI-C", "setting": "[1]", "value": 2.6}, {"measurement": "PBI", "setting": "[1]", "value": "1.7 and 1.72"}, {"measurement": "PGI-C AD", "setting": "[1]", "value": "2.7 and 2.74"}, {"measurement": "PGI-C Itch", "setting": "[1]", "value": "2.6 and 2.56"}, {"measurement": "SKINDEX-16", "setting": "[1]", "value": "−34.8"}, {"measurement": "Worst Itch NRS Night", "setting": "[1]", "value": "−3.4"}, {"measurement": "Worst itch NRS day", "setting": "[1]", "value": "−3.3"}, {"measurement": "worst Itch VAS", "setting": "[1]", "value": "−44.2"}, {"measurement": "Worst itch VAS ≥30 (responders)", "setting": "categorical, ≥30 points improvement from baseline, ITT, 85 mg bid, week 8", "value": 56.60, "unit": "%"}, {"measurement": "Worst itch VAS ≥40 (responders)", "setting": "categorical, ≥40 points improvement from baseline, ITT, 85 mg bid, week 8", "value": 52.6, "unit": "%"}, {"measurement": "EASI ≥75% (patients with 75% or greater improvement)", "setting": "[2]", "value": 21.1, "unit": "%"}, {"measurement": "SCORAD ≥50% (patients with 50% or greater improvement)", "setting": "[2]", "value": 44.0, "unit": "%"}, {"measurement": "CGIC, difference", "setting": "[3]", "value": "−0.7"}, {"measurement": "EASI ≥75%, difference", "setting": "[3]", "value": 10.0, "unit": "%"}, {"measurement": "PBI, difference", "setting": "[3]", "value": 0.48}, {"measurement": "PGIC AD, difference", "setting": "[3]", "value": "−0.71"}, {"measurement": "PGIC itch, difference", "setting": "[3]", "value": "−0.6"}, {"measurement": "SCORAD total, difference", "setting": "[3]", "value": "−7.68"}, {"measurement": "SCORAD ≥50%, difference", "setting": "[3]", "value": 23.2, "unit": "%"}, {"measurement": "average itch VAS, difference", "setting": "[3]", "value": "−5.7"}, {"measurement": "objective SCORAD, difference", "setting": "[3]", "value": "−6.1"}, {"measurement": "subjective SCORAD, difference", "setting": "[3]", "value": "−1.43"}, {"measurement": "worst itch NRS day, difference", "setting": "[3]", "value": "−0.81"}, {"measurement": "worst itch NRS night, difference", "setting": "[3]", "value": "−1.05"}, {"measurement": "worst itch VAS (≥40), difference", "setting": "[3]", "value": 17.9, "unit": "%"}, {"measurement": "worst itch VAS, difference", "setting": "[3]", "value": "−13.6"}]}]}
